These results are taken from patent US20240335425A1, “PHARMACEUTICAL COMPOSITIONS OF ALPHA-2-ADRENERGIC RECEPTOR AGONISTS AND THEIR USE FOR IMPROVING VISION” (Allergan, Inc., priority 2020, published 2024).

Series [1] deals with T1, human alpha-2A receptor (Homo sapiens, UniProt P08913).
T1 construct: expressed in transfected cells
T1 sequence (P08913 1-465): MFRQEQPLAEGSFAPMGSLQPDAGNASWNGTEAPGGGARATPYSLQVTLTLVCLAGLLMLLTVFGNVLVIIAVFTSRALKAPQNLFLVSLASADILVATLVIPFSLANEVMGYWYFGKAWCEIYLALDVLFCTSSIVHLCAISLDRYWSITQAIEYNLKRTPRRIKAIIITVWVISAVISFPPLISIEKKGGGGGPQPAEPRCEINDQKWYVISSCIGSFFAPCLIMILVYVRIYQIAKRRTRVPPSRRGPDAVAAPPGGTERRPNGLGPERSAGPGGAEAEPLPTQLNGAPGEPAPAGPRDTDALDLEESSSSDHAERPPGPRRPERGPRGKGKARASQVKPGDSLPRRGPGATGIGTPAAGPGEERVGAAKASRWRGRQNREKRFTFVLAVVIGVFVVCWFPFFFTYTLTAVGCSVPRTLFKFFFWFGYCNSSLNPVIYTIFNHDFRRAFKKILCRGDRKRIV
The series can be described thus: FLIPR calcium assay, HEK293 cells with human alpha-2A receptor coupled via chimeric Gqi5. It is filed as cell-based. Conditions: HEK293 stable cell line with Gqi5, peak calcium signal; read-out: human alpha2A EC50 (nm). The protocol:
An in vitro FLIPR (fluorometric image plate reader) assay was performed on several compounds, including the compound of Formula I (entry 1 in Table 1).
Specifically, four HEK293 stable cell lines were used in the FLIPR assay. The HEK293 cell line which stably expressed the bovine alpha adrenergic 1A receptor was used to characterize the alpha1 pharmacology. The alpha-2 adrenergic receptor family is a G coupled G-protein receptor. Therefore, in order to use these cell lines in the calcium based FLIPR assay, the chimeric G-protein Gqi5 was used to force the coupling of the human alpha-2A, alpha-2B, and alpha-2C receptors to the calcium pathway. Cells were plated, in triplicate, in poly-D-lysine coated 384-well plates at 25,000 cells per well and grown overnight in DMEM supplemented with 10% fetal bovine serum. For FLIPR evaluation, cells were washed twice with HBSS/HEPES buffer (1× Hanks Buffered Salt Solution, 20 mM HEPES, pH 7.4) prior to the addition of Fluo-4-AM (4 uM Fluo-4-AM, 0.04% pluronic acid in HBSS/HEPES buffer), a calcium-sensitive dye. Cells were loaded with dye for 40 minutes at 37° C., and then washed 4 times with HBSS/HEPES buffer to remove the excess dye. The test compounds were profiled at concentrations between 0.64 nM and 10,000 nM using a […] dilution factor.
The receptor activation was initiated by the addition of the appropriate dilutions of compounds and the transient calcium signal was captured. The peak height of the calcium curve was determined and utilized for calculation of EC50 and relative efficacy values using Activity Base software. EC50 was calculated using a 4 Parameter Logistic Equation: y=A+((B−A)/(1+((C/x)^D))) where A and B represents the bottom and top plateau of the curve; C represents the EC50 value; D represents the slope factor; and x and y represent the original x (drug concentration) and y (fluorescence signal, RFU) values.

The procedure of series [2]: Aliquots of the PBS only curve were quenched at time zero to be used as stability controls and calibration standards. Following centrifugation, samples were analyzed by LC-MS/MS bioanalysis. Back-calculated concentrations using the assay PBS curve were used for binding and stability calculations.
Series [3] relates to participants diagnosed with presbyopia. The series can be described thus: Clinical Study 2 in presbyopes, once daily for 14 days. Type of series: in vivo, human. The source says:
In this study, approximately 108 participants diagnosed with presbyopia (male and female; 40 to 65 years of age) are selected to participate.
Cohorts 4, 5, and 6 (Part A) are multiple ascending dose cohorts in which participants are randomized to receive either the compound of Formula I at doses ranging from 0.01% to 0.1% or vehicle once daily in both eyes for 14 days. Each cohort in Part A consists of 9 participants who receive active intervention (the compound of Formula I) and 3 participants that receive vehicle in order to evaluate safety, tolerability, pharmacokinetics, and clinical efficacy of the compound of Formula I. As with Example 8, after each cohort is completed, the independent data monitoring committee reviews the safety, pharmacokinetic, and target engagement data to determine if it is acceptable to proceed to the next planned dosing cohort. The dose of the compound of Formula I in Part B (Cohorts 7 and 8) is selected by the data monitoring committee after Cohort 6 has completed.
Cohort 7 is a single-masked, active comparator cohort that includes approximately 60 masked participants with presbyopia randomized 1:1 to receive either pilocarpine 1.25% (w/v) ophthalmic solution or an ophthalmic solution of the compound of Formula I administered at the dose strength recommended by the data monitoring committee for 14 days. Safety, tolerability, and efficacy is assessed after topical ocular administration of the compound of Formula I compared with pilocarpine 1.25%. Common adverse events associated with pilocarpine (particularly when administered to the eye) include, for example, headache, brow ache, accommodative change, eye irritation, eye pain, blurred vision, visual impairment, ocular blurring, ocular discomfort, blurry vision, light sensitivity, stinging, and itching.
Cohort 8 is a cohort to evaluate safety, tolerability, pharmacokinetics, and efficacy of the compound of Formula I administered at the dose strength recommended by the data monitoring committee compared with vehicle for 14 days in participants with presbyopia who wear contact lenses (9 participants receive the compound of Formula I and 3 participants receive vehicle).
In all cohorts of this study (Cohorts 4 to 8), participants receive their first dose in clinic on Day 1, and stay in clinic for safety, pharmacokinetic, and efficacy evaluations for 10 hours post-dose. The participants then return for dosing and safety evaluations once daily from Day 2 to Day 7. They then receive multidose bottles for single unit of use for at-home dosing from Days 8 to 13 and return to the clinic on Day 14 for dosing as well as safety, tolerability, pharmacokinetic (Cohorts 4 to 6, and 8 only), and efficacy evaluations for 10 hours post-dose. On Day 30, participants return for a safety follow-up and close out visit.
In Parts A and B of this study, safety and tolerability are evaluated as in Example 12 (i.e. by monitoring participants in the three cohorts for exhibition/reporting of adverse events and monitoring the characteristics/assessments as are monitored in Example 12), with the additional characteristics/assessments of contrast sensitivity, photopic (e.g. ≥80 cd/m^2; 251 lux at target) and mesopic (e.g. 3.2 to 3.5 cd/m^2; 10 to 11 lux at target) high contrast corrected distance visual acuity (each eye and binocularly), manifest refraction (mesopic and photopic) also being measured in Part A. Systemic and local pharmacokinetics of the compound of Formula I are evaluated by measuring plasma and tear concentrations of the compound of Formula I in the participants and also determining pharmacokinetic parameters as is done in Example 12. Target engagement is measured by measuring the pupil size of the participants during the study as is done in Example 12. […]

Where [4] appears, read: Part A, bilaterally for 14 days.
Setting [5] is: Part B, Cohort 8, contact lens wearers, 14 days.

As to `Cc1c(N=C2NCCN2)ccc2[nH]cnc12` [Compound 1], in series [1], the EC50 worked out at 0.7 nM. Moreover, the “melanin binding (in words)” value in series [2] is on record as “no significant melanin binding”. Besides, in series [3] (setting [4]), the “depth of focus compared with vehicle” value is “improved depth of focus”, the “distance corrected near visual acuity compared with vehicle” value is given as “numeric improvement (e.g. two or three lines)”, the “patient reported outcome questionnaires/questions compared with vehicle” value is listed as “more positive answers” and the “pupil diameter compared with vehicle” value was “decrease in pupil diameter”. For the same compound, the systemic exposures entry in series [3] (setting [4]) is reported as “sufficient safety margins”. Also, the safety and tolerability result in series [3] (Part A, bilaterally for 14 days, 0.01% to 0.1%) was “acceptable (or improved) safety and tolerability profiles”. For the same compound, in series [3] (Part B, Cohort 7), the “safety and tolerability compared with 1.25% (w/v) pilocarpine” value was “acceptable (or improved”. For the same compound, in series [3] (setting [5]), the “depth of focus compared with vehicle” value is given as “improved depth of focus”, the “distance corrected near (and/or intermediate) visual acuity compared with vehicle” value was “numeric improvement (e.g. two or three lines)” and the “patient reported outcome questionnaires/questions compared with vehicle” value is reported as “more positive answers”. The safety and tolerability result in series [3] (Part B, both cohorts, bilaterally for 14 days) was “acceptable safety and tolerability profiles”.
